The series in a line: partition coefficient from intrinsic solubility in octanol and water by image analysis of individual crystals. It counts as physicochemical. The note with it: octanol and water (separate solubilities); from aqueous solubility of the unionized form (pH 2-3) and solubility in octanol. The protocol: A solubility-pH profile was performed in aqueous buffers over the physiologically relevant range of pH 2-9. […] Additionally, using logP, pKa and pH data, the logD value was determined as a function of pH. All parameters determined using the present method correlated with theory and literature data. Thus, by only observing and characterizing one variable, i.e. the particle(s) size decrease of an individual crystal, it is possible to mine, in a high-content analysis (HCA) manner, a full physicochemical profile of six fundamental material characteristics for a material. Analysis device was constructed as a flow-through device consisting of two resistant flat metal plates. In the lower thereof a 1 mm hole was drilled as an outlet channel. The top metal plate hosted the inlet channel and was prepared with a glass window to facilitate detecting. A 0.2 μm inorganic membrane filter (Whatman nuclepore) was placed on the bottom plate and the particle(s) to be analyzed placed on top of the portion of the membrane filter being above the outlet channel. […] Equilibrium solubility, S was calculated from image analysis data based on a reorganized single-particle diffusion layer model dissolution rate equation, where S0 is the intrinsic solubility of the unionized form. Further, based on intrinsic solubility data in octanol and water the partition coefficient (logP) was determined according to, […]

From patent US12146871B2, “Method and device for physicochemical characterization of materials” (THE SOLUBILITY COMPANY OY, priority 2016, dated 2024) come the findings set out here.

Structures are written as SMILES.

Regarding `COc1ccc2c(c1)c(CC(=O)O)c(C)n2C(=O)c1ccc(Cl)cc1` [indomethacin], the logP (commonly the decadic logarithm of the partition coefficient of the neutral form, usually between octanol and water) was found to be 4.1.
